Test results taken from PMC6875038, “Comparative Pharmacokinetic Studies of Four Ginsenosides in Rat Plasma by UPLC-MS/MS after Oral Administration of Panax quinquefolius-Acorus gramineus and Panax quinquefolius Extracts” (Journal of Analytical Methods in Chemistry, 2019).
Like-named read-outs stand apart in the source and are kept apart here.

Tests used:
[1] = Stability of the ginsenosides in rat plasma (QC samples); assay type: in vitro ADME; settings: for Re (%) Postpreparation / Recovery (%) Postpreparation: autosampler 4°C for 12 h; for Re (%) Short term / Recovery (%) Short term / Re (%) Freeze-thaw cycles / Recovery (%) Freeze-thaw cycles: rat plasma; for Re (%) Short term / Recovery (%) Short term: 1 month at −80°C; for Re (%) Freeze-thaw cycles / Recovery (%) Freeze-thaw cycles: three freeze-thaw cycles at −80°C
Procedure: The standard stock solution was prepared in methanol with four ginsenosides at the final concentration of 1.14 mg/mL for Rb1, 0.10 mg/mL for Rb2, 0.78 mg/mL for Rd, and 1.58 mg/mL for Re. The working standard solution at required concentration was obtained by continuously diluting the stock solution. The IS stock solution was also prepared with methanol at a final concentration of 720 ng/mL. Calibration samples were prepared by mixing solutions of standard mixture, internal standard, and methanol with rat blank plasma at the final concentrations of 3.6, 7.2, 35.6, 71.2, 142.4, 284.8, 569.5, and 1, 139.0 ng/mL for Rb1, 1.6, 3.2, 6.3, 31.3, 62.5, 125.0, 250.0, and 500.0 ng/mL for Rb2, 1.2, 2.4, 4.9, 24.4, 48.8, 97.6, 195.1, and 390.2 ng/mL for Rd, and 2.5, 4.9, 9.9, 49.3, 98.6, 197.1, 394.3, and 788.5 ng/mL for Re. QC samples were also prepared with the same method at low, middle, and high concentrations (7.2, 142.4, and 911.4 ng/mL for Rb1, 3.2, 62.5, and 400.0 ng/mL for Rb2, 2.4, 48.8, and 312.2 ng/mL for Rd, 5.0, 98.6, and 630.8 ng/mL for Re). All solutions were stored at 4°C. The stability of the four analytes was determined by exposing plasma samples to QC at three concentration levels in six replicates. Samples were stored at −80°C for 1 month to assess the short-term storage stability. Freeze-thaw stability was performed after three freeze-thaw cycles at −80°C during three consecutive days. To evaluate the postpreparative stability, extracted QC samples were kept in the autosampler (4°C) for 12 h before analysis. The stability assessment of these samples was calibrated with freshly prepared standard as previously described.

[2] = Pharmacokinetics of four ginsenosides in rat plasma after oral administration of PQ-AG and PQ extracts (UPLC-MS/MS); assay type: in vivo; settings: male SD rats, n = 6, mean ± SD; for AUC: male, SD, po
Procedure: Chromatographic analysis was performed on a Waters Acquity UPLC system (Waters Corp., Milford, MA, USA). An ACQUITY UPLC BEH C18 (100 × 2.1 mm, 1.7 μm) column was used for all analytes. The column temperature was at 35°C. The mobile phase was composed of formic acid aqueous solution (A, 0.1%) and acetonitrile (B) at a gradient elution of 25% B at 0–0.5 min, 25%–50% B at 0.5–2.0 min, 50–60% B at 2.0–5.0 min, 60–25% B at 5.0–5.5 min, and 25% B at 5.5–7.0 min, with a flow rate of 0.2 mL/min.
MS detection was performed using the Xevo Triple Quadruple MS (Waters Corp.) equipped with an ESI source in both positive and negative ionization modes. The experimental parameters were set as follows: CV 2.80 kV; desolvation temperature 350°C; source temperature […]; cone gas flow 50 L/h; and desolvation gas flow 650 L/h. The detection was carried out using the MRM scan mode. All experimental data were collected in centroid mode using Masslynx 4.1 software (Waters Corp., Milford, USA), and postacquisition quantitative analysis was conducted using Target Lynx program (Waters Corp., Milford, USA).
Plasma specimens (200 μL) were mixed with IS solution (20 μL, 720 ng/mL) in an Eppendorf tube and centrifuged at 4, 000 rpm for 15 min at 4°C. Then, the supernatant was removed from plasma sample. Hydrochloric acid (4 μL) was added into 200 μL plasma sample, and then, the mixture was vortexed for 1 min. Waters OASIS HLB SPE C18 columns (Waters, USA) were used to remove the proteins in plasma samples, and it was preactivated by 3 mL methanol and 3 mL water. Then, 2 mL of 100% methanol was used to wash the column, and the eluate was collected and dried under nitrogen gas (45°C). Subsequently, 100 μL of 100% methanol was used to redissolve the residues, followed by centrifugation at 13, 000 rpm for 15 min at 4°C. Before UPLC-MS/MS analysis, the sample was finally filtered through a 0.22 μm membrane filter.
DAS 3.2 software (Mathematical Pharmacology Professional Committee of China, Shanghai, China, 2011) was applied for the analysis of concentration-time data to investigate the pharmacokinetic parameters of four ginsenosides in various groups. Data were presented as the mean ± SD (standard deviation) with triplicate measurements. A significance level was set at P < 0.05.
Male SD rats were randomly and evenly divided into two groups (n = 6 per group) in pharmacokinetic studies. To evaluate the compatible effect of AG upon PQ treatment, rats were given PQ at a dosage of 0.54 g/kg (equivalent to the amount of raw drug 0.54 g) in the PQ group. PQ-AG was combined with an equal proportion to prepare the mixed extract. The oral dosage in rats was 1.08 g/kg (equivalent to the amount of the raw drug including 0.54 g AG and 0.54 g PQ) in the PQ-AG group. Blood samples were collected at specific time points of 0, 0.25, 0.5, 1.0, 1.5, 2.0, 4.0, 6.0, 8.0, 12.0, 16.0, 24.0, and 48.0 h. All the plasma samples were obtained by centrifuging the blood samples at 3, 500 rpm for 10 min, then labeled and frozen at −80°C prior to analysis.

[3] = extracted high QC (911.4 Rb1, 400.0 Rb2, 312.2 Rd, 630.8 Re ng/mL)
[4] = extracted low QC (7.2 Rb1, 3.2 Rb2, 2.4 Rd, 5.0 Re ng/mL)
[5] = extracted middle QC (142.4 Rb1, 62.5 Rb2, 48.8 Rd, 98.6 Re ng/mL)
[6] = high QC (911.4 Rb1, 400.0 Rb2, 312.2 Rd, 630.8 Re ng/mL)
[7] = low QC (7.2 Rb1, 3.2 Rb2, 2.4 Rd, 5.0 Re ng/mL)
[8] = middle QC (142.4 Rb1, 62.5 Rb2, 48.8 Rd, 98.6 Re ng/mL)
[9] = PQ group: oral PQ extract 0.54 g/kg
[10] = PQ-AG group: oral PQ-AG extract 1.08 g/kg
[11] = 0.54 g/kg, PQ group: oral PQ extract 0.54 g/kg, read-out: AUC0⟶t
[12] = 0.54 g/kg, PQ group: oral PQ extract 0.54 g/kg, read-out: AUC0⟶∞
[13] = 1.08 g/kg, PQ-AG group: oral PQ-AG extract 1.08 g/kg, read-out: AUC0⟶t
[14] = 1.08 g/kg, PQ-AG group: oral PQ-AG extract 1.08 g/kg, read-out: AUC0⟶∞

Row | Re (%) Postpreparation [1, 3] [%] | Recovery (%) Postpreparation [1, 3] [%] | Re (%) Postpreparation [1, 4] [%] | Recovery (%) Postpreparation [1, 4] [%] | Re (%) Postpreparation [1, 5] [%] | Recovery (%) Postpreparation [1, 5] [%] | Re (%) Short term [1, 6] [%] | Recovery (%) Short term [1, 6] [%] | Re (%) Freeze-thaw cycles [1, 6] [%] | Recovery (%) Freeze-thaw cycles [1, 6] [%] | Re (%) Short term [1, 7] [%] | Recovery (%) Short term [1, 7] [%] | Re (%) Freeze-thaw cycles [1, 7] [%] | Recovery (%) Freeze-thaw cycles [1, 7] [%] | Re (%) Short term [1, 8] [%] | Recovery (%) Short term [1, 8] [%] | Re (%) Freeze-thaw cycles [1, 8] [%] | Recovery (%) Freeze-thaw cycles [1, 8] [%] | Cmax [2, 9] [ng/mL] | Tmax [2, 9] [h] | Compound | other results
1 | 7.90 | 99.63 | −9.72 | 93.37 | 2.39 | 99.94 | 7.11 | 98.74 | 9.36 | 103.82 | −9.70 | 93.67 | −9.69 | 94.21 | −2.12 | 95.33 | 6.77 | 100.41 | 160 ± 18.8 | 7.67 ± 0.82 | CC(C)=CCC[C@](C)(O[C@@H]1O[C@H](CO[C@@H]2OC[C@H](O)[C@H](O)[C@H]2O)[C@@H](O)[C@H](O)[C@H]1O)[C@H]1CC[C@]2(C)[C@@H]1[C@H](O)C[C@@H]1[C@@]3(C)CC[C@H](O[C@@H]4O[C@H](CO)[C@@H](O)[C@H](O)[C@H]4O[C@@H]4O[C@H](CO)[C@@H](O)[C@H](O)[C@H]4O)C(C)(C)[C@@H]3CC[C@]12C [Rb2] | half-life [2, 9]: 800 ± 94.8 min; Cmax [2, 10]: 264 ± 24.5 ng/mL; Tmax [2, 10]: 7.67 ± 0.82 h; half-life [2, 10]: 937 ± 313 min; AUC [2, 11]: 1210 ± 99.2 ng·h/mL; AUC [2, 12]: 1230 ± 99.6 ng·h/mL; AUC [2, 13]: 2460 ± 243 ng·h/mL; AUC [2, 14]: 2520 ± 289 ng·h/mL
2 | 9.76 | 102.50 | 8.54 | 104.63 | 8.92 | 97.21 | 8.40 | 101.73 | −9.85 | 97.39 | −10.71 | 97.30 | 7.33 | 104.07 | 12.11 | 99.25 | 7.53 | 94.12 | 355 ± 26.6 | 1.08 ± 0.2 | CC(C)=CCC[C@](C)(O[C@@H]1O[C@H](CO)[C@@H](O)[C@H](O)[C@H]1O)[C@H]1CC[C@]2(C)[C@@H]1[C@H](O)C[C@@H]1[C@@]3(C)CC[C@H](O)C(C)(C)[C@@H]3[C@@H](O[C@@H]3O[C@H](CO)[C@@H](O)[C@H](O)[C@H]3O[C@@H]3O[C@@H](C)[C@H](O)[C@@H](O)[C@H]3O)C[C@]12C [Re] | half-life [2, 9]: 488 ± 72 min; Cmax [2, 10]: 460 ± 30.2 ng/mL; Tmax [2, 10]: 0.58 ± 0.2 h; half-life [2, 10]: 589 ± 129 min; AUC [2, 11]: 2330 ± 214 ng·h/mL; AUC [2, 12]: 2380 ± 224 ng·h/mL; AUC [2, 13]: 3430 ± 294 ng·h/mL; AUC [2, 14]: 3580 ± 396 ng·h/mL
3 | −6.47 | 96.10 | 6.86 | 101.85 | 9.35 | 101.65 | 7.53 | 101.65 | 7.75 | 101.95 | −7.55 | 96.32 | −6.90 | 97.66 | 7.95 | 100.48 | −4.48 | 95.35 | 461 ± 15.9 | 7 ± 1.1 | CC(C)=CCC[C@](C)(O[C@@H]1O[C@H](CO[C@@H]2O[C@H](CO)[C@@H](O)[C@H](O)[C@H]2O)[C@@H](O)[C@H](O)[C@H]1O)[C@H]1CC[C@]2(C)[C@@H]1[C@H](O)C[C@@H]1[C@@]3(C)CC[C@H](O[C@@H]4O[C@H](CO)[C@@H](O)[C@H](O)[C@H]4O[C@@H]4O[C@H](CO)[C@@H](O)[C@H](O)[C@H]4O)C(C)(C)[C@@H]3CC[C@]12C [Rb1] | half-life [2, 9]: 937 ± 91.2 min; Cmax [2, 10]: 600 ± 53.6 ng/mL; Tmax [2, 10]: 6.67 ± 1.03 h; half-life [2, 10]: 1110 ± 157 min; AUC [2, 11]: 5980 ± 313 ng·h/mL; AUC [2, 12]: 6150 ± 328 ng·h/mL; AUC [2, 13]: 8130 ± 454 ng·h/mL; AUC [2, 14]: 8410 ± 488 ng·h/mL
4 | −7.02 | 94.81 | 4.43 | 100.10 | 9.98 | 101.71 | 7.35 | 101.27 | 8.12 | 102.00 | 8.64 | 102.66 | −11.93 | 97.24 | 10.24 | 103.61 | 8.87 | 100.20 | 201 ± 7.3 | 7.67 ± 0.82 | CC(C)=CCC[C@](C)(O[C@@H]1O[C@H](CO)[C@@H](O)[C@H](O)[C@H]1O)[C@H]1CC[C@]2(C)[C@@H]1[C@H](O)C[C@@H]1[C@@]3(C)CC[C@H](O[C@@H]4O[C@H](CO)[C@@H](O)[C@H](O)[C@H]4O[C@@H]4O[C@H](CO)[C@@H](O)[C@H](O)[C@H]4O)C(C)(C)[C@@H]3CC[C@]12C [Rd] | half-life [2, 9]: 787 ± 157 min; Cmax [2, 10]: 283 ± 11.1 ng/mL; Tmax [2, 10]: 6.33 ± 0.82 h; half-life [2, 10]: 853 ± 119 min; AUC [2, 11]: 3010 ± 230 ng·h/mL; AUC [2, 12]: 3320 ± 317 ng·h/mL; AUC [2, 13]: 3870 ± 356 ng·h/mL; AUC [2, 14]: 3960 ± 383 ng·h/mL
